Data as given in patent US8946271B2, “Water soluble furoxan derivatives having antitumor activity” (Humanitas Mirasole S.p.A., priority 2010, dated 2015).
Where a name gives a salt, the structure may show the parent alone.

How the values were obtained:
[1] = Stability in human serum at 37° C. (RP-HPLC); format: in vitro ADME; details: for half-life at 200 μM: read-out: Stability in human serum t1/2
Experimental: (§1) The stability of the compound MC526 was studied through reverse phase chromatography in an aqueous medium at pH=1 and in the human serum at 37° C.
In order to assay the stability of the compound of Example 1 in human serum, a 10 mM solution of the compound in DMSO was added to human serum (obtained from human AB plasma, Sigma) preheated to 37° C. The final concentration of the compound was 200 μM. The resulting solution was incubated at 37±0.5° C. and 300 μL aliquots of the reaction mixture were collected and added to an equal amount of acetonitrile containing trifluoroacetic acid 0.1% at suitable time intervals for deproteinising the serum. The sample was sonicated, vortexed and then centrifuged for 10 minutes at 2150 g. The white supernatant was filtered using PTFE 0.45μm (Alltech) filters and analysed through RP-HPLC.
(§2) The analysis in RP-HPLC allows separating and quantifying the initial compounds and those deriving from hydrolysis. Analysis was carried out using a HP1100 (Agilent Technologies, Palo Alto, Calif., USA) chromatography system equipped with a quaternary pump (model G1311A), a degassing membrane (G1379A), a diode-array detector (DAD) (model G1315B) integrated in the HP1100 system. A HP ChemStation (Agilent Technologies) system was used for analyzing data. The analytic column was Nucleosil 100-5 C18 Nautilus (250×4, 6 mm, size of the particles 5 μm) (Macherey-Nagel). The mobile phase used was constituted by acetonitrile/water (55/45) with 0.1% trifluoroacetic acid and the flow rate is of 1.2 ml/min. The injection volume was 20 μl (Rheodyne, Cotati, Calif.). The effluent from column was monitored at 226 nm (for the compound MC526 and for CAS 1609) and at 240 nm (for salicylic acid and the salicylate AT38) against a reference at 600 nm. The quantification of the initial products and those deriving from hydrolysis was carried out by means of calibration curves obtained using standards studied in the same conditions (for concentrations comprised between 5 and 200 μM).

[2] = Stability in aqueous medium at pH=1 (0.1 M HCl, 37° C., RP-HPLC); format: physicochemical; details: compound unaltered after 1 hour of incubation, 100 μM
Experimental: as §1
In particular, a 10 mM solution of the compound of Example 1 in DMSO was added to a 0.1 M solution of HCl preheated to 37° C. The final concentration of the compound was 100 μM. The resulting solution was maintained at 37±0.5° C. and 20 μl aliquots of the reaction solution were analysed by means of RP-HPLC at suitable time intervals.
as §2

[3] = tested on: splenocytes of the BALB/C from the control animal group and from the animals carrying colon carcinoma26 (C26GM); assay: Proliferation assay (3H-TdR) of anti-CD3/anti-CD28 stimulated splenocytes; format: cell-based, mice; details: FIG. 7
Experimental: The mice BALB/c were inoculated s.c. in the inguinal cavity with 0.5*10^6 cells C26GM. The mice were sacrificed after 9 days and the splenocytes were used for in vitro assays.
The splenocytes of the BALB/C from the control animal group and from the animals carrying colon carcinoma26 (C26GM) are plated to the concentration of 6*10^5 cells per well and stimulated with 3 μg/ml anti-CD3 (2C11, ATCC) and 2 μg/ml of anti-CD28 (clone 37.5, ATCC) both with and without scalar dilutions of the compounds subject of the invention. After 3 days of incubation, 1 μCi/well (1 Cl=37 GBq) of ^3H-TdR (PerkinElmer) is added to the culture for 18 hours and the addition thereof is monitored by scintillation.
In particular, the controls (Unst) refer to cells not stimulated with antiCD3 and antiCD28 and the control (St) on stimulated cells but drug-free. It can be observed that the doses corresponding to 200 μM and 100 μM are toxic for the cells, in that the proliferation is not observed even on healthy splenocytes.

Solubility in water = format: physicochemical

With NCCC(=O)Oc1ccccc1C(=O)OCc1no[n+]([O-])c1C(N)=O [MC526, ([3-(aminocarbonyl)furoxan-4-yl]methyl-2-(β-alanyloxy)benzoate)hydrochloride] the half-life at 200 μM [1] was 1.4 min, the “Stability in buffer at pH = 1 after 1 hour” value (from here on “Stability in buffer”) [2] was 60% and the Proliferation assay result ([3]; 12.5 μM) was “efficient and non-toxic”. For the same molecule, the Proliferation assay result ([3]; 25 μM) was “efficient and non-toxic”, the “Proliferation assay result on healthy cells” value ([3]; 50 μM, healthy cells) was “partly toxic” and the Proliferation assay result ([3]; 100 μM, healthy splenocytes) was “toxic”. For the same molecule, the Proliferation assay result ([3]; 200 μM, healthy splenocytes) was “toxic” and the solubility (Solubility in water) was 10 mg/mL.

In the case of NCCCC(=O)Oc1ccccc1C(=O)OCc1no[n+]([O-])c1C(N)=O [MC596, ([3-(aminocarbonyl)furoxan-4-yl]methyl-2-(4-aminobutanoyloxy)benzoate hydrochloride)], the half-life at 200 μM [1] is reported as 1.6 min, the “Stability in buffer” value [2] is reported as 90% and the solubility (Solubility in water) is reported as 2.5 mg/mL.

For NC(=O)c1c(COC(=O)c2ccccc2O)no[n+]1[O-] [AT38, [3-(aminocarbonyl)furoxan-4-yl]methyl salicylate, reference compound], the “Hydrolysis of the salicylate derivative in human serum” value ([1]; release of CAS 1609 and salicylic acid) was “slowly releases the CAS 1609 compound and salicylic acid” and the solubility (Solubility in water) was under 0.001 mg/mL.

In the case of CC(N)C(=O)Oc1ccccc1C(=O)OCc1no[n+]([O-])c1C(N)=O (stereo not shown) [MC598, ([3-(aminocarbonyl)furoxan-4-yl]methyl-2-(alanyloxy)benzoate hydrochloride)], the half-life at 200 μM [1] is reported as 1.3 min, the “Stability in buffer” value [2] is reported as 80% and the solubility (Solubility in water) is reported as 10 mg/mL.
